Here are results for 1 substance from PMC6643437, “MicroRNA Biogenesis is Enhanced by Liposome-Encapsulated Pin1 Inhibitor in Hepatocellular Carcinoma” (Theranostics, 2019).

The test system of data set [1] is SK-Hep1 tumors. Description: SK-Hep1 xenograft in BALB/c nude mice. The class given is in vivo. As to the method: SK-Hep1 cells during the exponential-growth phase were collected and suspended in saline solution containing 50% Matrigel (Corning) at 5 × 10^7/mL. Then 100 μL of cells were injected into female BALB/c nude mice (5 weeks old) subcutaneously. Tumor growth was recorded every 3 days, and the tumor volume was calculated as ab^2/2 (a, long diameter; b, short diameter). All mice were randomized into 4 groups (8 mice per group) when the tumor volume reached 150-200 mm^3 and then were intravenously injected with normal saline, LP, free API-1 or API-LP at the 4 mg/kg dosage once every two days. At the end of the treatment, tumors were removed from mice and RNAs were extracted for miRNA detection.
Quantitative RT-PCR was used to assess miRNA expression levels. Total RNAs were extracted by TRIzol reagent (Invitrogen) from cells and transcribed by M-MLV reverse transcriptase (Invitrogen). Hairpin-it^TM real-time PCR miRNA kit for miR-122, let-7a, miR-29b and miR-146a were purchased from Shanghai GenePharma Co., Ltd (China). The miRNA levels were determined by Applied Biosystems StepOne Plus Real-Time PCR Systems using SYBR green master mix (Thermo fisher). Small endogenous nucleolar U6 RNA was used as internal control for miRNA normalization.

A short description of data set [2]: In vivo safety study, single 100 mg/kg i.v. dose in BALB/c nude mice. As to the method: (§1) Safety of the liposomes in vivo was evaluated by blood biochemical analysis, H&E staining and Masson staining of tissues. Briefly, following i.v. administration of normal saline, LP, API-1 or API-LP in the BALB/c nude mice, the peripheral blood samples were collected using heparin and centrifuged for serum biochemical analysis. The tissue samples were simultaneously excised and fixed in 4% PFA. Blood ALT, AST, TBIL, ALB, UREA and total protein analyses were performed using BioAssay Systems blood chemistry assay kits following the manufacturer's instructions. The tissue samples were embedded in paraffin, then cut into 5 μm thick paraffin sections and subsequently placed on glass slide. The slides were stained with H&E. The histopathological alterations were observed and imaged with a light microscope (OLYMPUS BX43).

Data set [3] in a line: Blood biochemistry and hepatic histopathology in tumor-bearing mice after multiple dosing. The class given is in vivo. As to conditions: 4 mg/kg i.v. once every two days. As to the method: as §1
In order to facilitate the judgment of the positivity and degree of hepatic injury of mice, an ace hepatic injury mice model was built by treating mice with tetracycline by gavage at dose of 500 mg/kg. Mice were fasted after oral tetracycline for 30 h and then were executed. The serum ALT, AST, TBIL and hepatic histopathological examinations were performed to evaluate liver injuries.
The experimental tissues were fixed with formalin and embedded in paraffin. Sections with 5 μm in thickness were prepared for H&E staining, Masson staining and immunostaining with anti-RIP3 antibody (Abcam). The images were acquired on an Olympus digital camera attached to a light microscope.

A further data set deals with SK-Hep1 cells. Description: MTT cell viability assay. The class given is cell-based, human. Particulars: 72 h. As to the method: MTT assay was conducted to estimate cell viability. Briefly, SK-Hep1 cells were seeded in a 96-well culture plate (2000 cells/well) and then treated with different concentrations of API-LP or free API-1 at 72 h in a 5% CO2 incubator for indicated time. At the end of incubation, 10 µL of MTT solution (5 mg/mL) was added into each well. After a 3 h incubation, DMSO (100 μL) was added to dissolve the resultant purple formazan crystals. The absorbance was measured at 570 nm on Thermo Scientific Varioskan Flash Multimode Reader.
A general note: Tetrazolium assays rely on reduction of a dye to a coloured formazan, in cell work by metabolically active cells.

The nature of data set [4]: Pharmacokinetic study in BALB/c mice. It is filed as in vivo. As to conditions: 10 mg/kg i.v. As to the method: The pharmacokinetic performance of API-LP was assessed in BALB/c mice. Following overnight fasting, six mice were randomized into two groups and received i.v. injection of free API-1 in 1 × PBS (pH 7.4) with 5% DMSO and API-LP in 1 × PBS (pH 7.4), respectively, at 10 mg/kg dose. At the prescheduled sampling time points, 20 μL blood samples were collected through caudal vein bleeding into heparinized centrifuge tube, followed by the centrifugation to obtain plasma, which was then stored at -80 °C until determination of the drug concentration.
For API-1 quantitation, plasma samples were thawed to room temperature. API-1 was extracted using acetonitrile and quantified by HPLC with QTRAP 5500 tandem mass spectrometry (LC/MS/ MS) system. The pharmacokinetic parameters based on the measured concentrations were calculated using GraphPad Prism (GraphPad Software).

Data set [5] deals with SK-Hep1 tumors. Set-up: method as in PMID 29381806. As to conditions: free API-1, mice, ref [15]; cited from earlier work.
The next data set concerns XPO5. Description: XPO5 subcellular distribution (confocal imaging, fractionation and Western blotting). Particulars: 1 μM, SK-Hep1. It is filed as cell-based, human. As to the method:
SK-Hep1 cells cultured on glass coverslips after different treatments were fixed in 4% PFA for 20 min, permeabilized with 0.5% Triton X-100 for 10 min, blocked with 5% BSA, and then incubated with primary anti-XPO5 antibody at 4 °C overnight, followed by incubation with Alexa Fluor dye- conjugated secondary antibodies for 1 h. Then the nuclei were stained with DAPI for 5 min at room temperature before mounting in Immu-Mout (Thermo fisher). Confocal fluorescence images were captured using Leica TCS SP5 II confocal spectral microscope.
For total protein preparation, cells were lysed on ice for 20 min in the RIPA lysis buffer (Beyotime) with protease inhibitor cocktail (Bimake), followed by centrifugation at 12000 rpm for 10 min at 4 °C. The resultant proteins in the supernatants were stored at -80 °C or directly subjected to SDS-PAGE. For nuclear-cytoplasmic fractionation of proteins, RLN buffer (5 mM Tris-HCl pH 7.4, 1.5 mM MgCl2, 140 mM NaCl, 0.5% NP-40) was freshly prepared when used. SK-Hep1 cells were harvested and gently resuspended in 200 µL RLN buffer with protease inhibitor cocktail, followed by centrifugation at 300 g for 2 minutes at 4 °C, the resultant supernatants are the cytoplasmic proteins. […] The signals were detected using ECL reagents (Life Technologies).
Background: A western blot detects proteins with antibodies after separation by electrophoresis.

Data set [6] is described as follows: In vitro drug release by dialysis at pH 7.4. Particulars: PBS pH 7.4 with 0.5% Tween-80, 37 °C. It is filed as physicochemical. As to the method:
In vitro release of API-1 from API-LP was investigated in a simulated blood pH environment (pH 7.4). Briefly, 1 mL API-LP diluted ten times in advance was used to determine the initial API-1 concentration, and the remaining 9 mL was dialyzed in a dialysis bag (3500 Da) in 50 mL PBS (pH 7.4) containing 0.5% Tween-80. The experiment was performed in triplicate at 37°C with shaking at 100 rpm for one week. Samples were withdrawn at prescheduled sampling time points and replaced with the same volume of release buffer each time. The samples were quantified by high performance liquid chromatography (HPLC).

The mark [7] stands for this setting: 4 mg/kg i.v. once every two days, SK-Hep1 xenograft.

As for API-1, in the data set on SK-Hep1 tumors [1] (setting [7]), the body weight result is given as “did not impact body weight”; the “tumor growth and tumor volume” value is “significantly suppressed tumor growth and reduced tumor volume”. In addition, the “biogenesis of mature miRNAs in tumor tissues” value in the data set on SK-Hep1 tumors [1] (4 mg/kg, SK-Hep1 tumor tissues, real-time PCR) was “significantly increased biogenesis of miR-122, let-7a, miR-29b and miR-146a”. In addition, in data set [2], the “haematological or liver toxicity (blood biochemistry)” value is “neither free API-1 nor API-LP had haematological or liver toxicity”. In data set [3], the “ALT Mean” value is reported as 39.67 U/L, the “AST Mean” value was 133.67 U/L and the “TBIL Mean” value was determined as 1.70 µmol/L. The “inhibition of SK-Hep1 cell proliferation (MTT)” value in the data set with SK-Hep1 cells is “inhibited SK-Hep1 cell proliferation in a dose-dependent manner”. In addition, in data set [4], the “API-1 plasma concentration at 24 h postdose” value came out at 34.8 ng/mL. For the same substance, in data set [4] (n=3), the Clearance was determined as 72.75 ± 3.93 mL/h and the “Half-life t1/2” value amounted to 6.31 ± 0.66 h. Also, the “efficacious dose to suppress HCC tumor growth in mice” value in the data set on SK-Hep1 tumors [5] is on record as 5 mg/kg. For the same substance, the “nucleus-to-cytoplasm export of XPO5” value with XPO5 is on record as “restored the export of XPO5 to cytoplasm”. Moreover, in data set [6], the “release in the first 12 h of dialysis” value came to 81.6%.
